Measured values from publication PMC6857474, “Differential Effects of the Mitochondria-Active Tetrapeptide SS-31 (D-Arg-dimethylTyr-Lys-Phe-NH2) and Its Peptidase-Targeted Prodrugs in Experimental Acute Kidney Injury” (Frontiers in Pharmacology, 2019).

Key:
BALB/c male mice [1] = test: Aristolochic acid (AA)-induced acute tubulo-interstitial kidney injury model; assay type: in vivo, mouse; settings: AA 1 x 5 mg/kg i.p. alone; control group 44 ± 5
Method: (§1) All experiments were conducted in accordance with federal and local regulations, according to a protocol approved by the animal ethics committee of the Canton de Vaud, Switzerland (No. 2655.0). Kidney injury was induced by intraperitoneal (i.p.) injection of AA (Sigma-Aldrich, 1 × 5 mg/kg) or ADR (Adriblastin, Pfizer, 1 × 10 mg/kg) in 10-week-old BALB/c male mice (n = 5–7 mice/experimental group). SS-31 analogs were diluted in 0.9% NaCl and administered i.p. once a day, starting 1 day before the disease-inducing drugs (day −1) at a dose of 3 mg/kg and then daily until day 6. The animals were weighted at days 0, 3, and 6, and sacrificed at day 7. The level of protein in urine was semi-quantitatively assessed using Albustix reagent strips (Bayer, Basel, Switzerland). At the end of the treatment period, the mice were sacrificed to remove both kidneys. The kidneys were spliced in four equal fragments containing the cortex and medulla. One fragment was immediately snap-frozen in liquid nitrogen for real-time quantitative polymerase chain reaction (qRT-PCR) and Western blot experiments, one fragment was included in OCT (Tissue-Tek, VWR International, Dietikon, Switzerland) and frozen for histoenzymography, one fragment was frozen at −80°C and used for pharmacokinetic (PK) measurements, and one fragment was fixed in 4% paraformaldehyde and included in paraffin for histology. […]

BALB/c male mice [2] = test: Adriamycin (ADR)-induced glomerular damage model; assay type: in vivo, mouse; settings: ADR 1 x 10 mg/kg i.p. alone, at the time of sacrifice
Method: as §1

[3] = biological target: T1, γ-glutamyltranspeptidase (γ-GT) (Rattus norvegicus, UniProt P07314); test: γ-GT enzymatic activity in intact living EC219 cells (γ-Glu-AMC substrate); assay type: cell-based; settings: 40 µM γ-Glu-AMC
T1 construct: These cells express high levels of APA and γ-GT activities and can be used to measure kinetics in living cells; endogenous in cells; host or cells: EC219 rat brain-derived endothelial cells
T1 sequence (P07314 whole entry): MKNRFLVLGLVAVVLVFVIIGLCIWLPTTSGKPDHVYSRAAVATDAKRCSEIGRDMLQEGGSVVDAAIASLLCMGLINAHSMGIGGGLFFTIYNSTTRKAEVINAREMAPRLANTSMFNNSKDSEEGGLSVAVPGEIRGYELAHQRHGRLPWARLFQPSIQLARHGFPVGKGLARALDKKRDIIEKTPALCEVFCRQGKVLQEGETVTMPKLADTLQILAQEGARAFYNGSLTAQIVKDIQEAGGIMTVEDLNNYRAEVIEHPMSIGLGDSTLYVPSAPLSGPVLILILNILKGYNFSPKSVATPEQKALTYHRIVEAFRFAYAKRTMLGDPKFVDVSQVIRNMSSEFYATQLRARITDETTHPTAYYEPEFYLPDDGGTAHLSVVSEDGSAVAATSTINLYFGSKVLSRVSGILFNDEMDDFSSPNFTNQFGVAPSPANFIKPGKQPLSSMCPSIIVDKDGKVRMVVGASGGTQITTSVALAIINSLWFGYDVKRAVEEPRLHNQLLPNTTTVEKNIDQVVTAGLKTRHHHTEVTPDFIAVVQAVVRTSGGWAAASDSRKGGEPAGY
Method: The preparation and characterization of rat brain-derived EC219 endothelial cells were previously described ([Juillerat-Jeanneret et al., 1992]). These cells express high levels of APA and γ-GT activities and can be used to measure kinetics in living cells as APA and γ-GT-positive representative cell models. The cells were grown in Dulbecco’s modified Eagle medium (DMEM) containing 1 g/L glucose, 10% heat-inactivated fetal calf serum (FCS), and antibiotics on uncoated cell culture plastic plates and flasks. […]
Stock solutions of α-Glu-AMC (APA) and γ-Glu-AMC and Gly-Gly (γ-GT) substrates, all from Bachem, were prepared at 10 mM in DMSO. […] The increase in absorbance was measured at 37°C in a thermostated fluorescence multiwell-plate reader (CytoFluor Series 4000; PerSeptive Biosystems, MA, USA) at λex = 360 nm/λem = 460 nm using the linear portion of the curves. The kinetics values were then graphically determined or according to Wu and colleagues ([Wu et al., 2011]).
(A) Intact living EC219 cells were exposed to increasing concentrations of either amastatin (left panel) or acivicin (right panel), two well-characterized enzymatic activity inhibitors of APA or γ-GT, respectively. The activities of the enzymes aminopeptidase A (APA) or γ-glutamyltranspeptidase (γ-GT) were determined using 40 µM of the substrates (S), α-Glu-AMC or γ-Glu-AMC, respectively. […] Data were analyzed graphically. […]

aminopeptidase A (APA) = biological target: T2, aminopeptidase A (APA) (Mus musculus, UniProt P16406); test: Histoenzymography of APA activity on frozen kidney sections of ADR-treated mice; assay type: biochemical; settings: kidney sections of ADR-exposed mice, α-Glu-βNA substrate, 37°C
T2 construct: from tissue; host or cells: frozen kidney sections of ADR-treated BALB/c male mice
T2 sequence (P16406 1-945): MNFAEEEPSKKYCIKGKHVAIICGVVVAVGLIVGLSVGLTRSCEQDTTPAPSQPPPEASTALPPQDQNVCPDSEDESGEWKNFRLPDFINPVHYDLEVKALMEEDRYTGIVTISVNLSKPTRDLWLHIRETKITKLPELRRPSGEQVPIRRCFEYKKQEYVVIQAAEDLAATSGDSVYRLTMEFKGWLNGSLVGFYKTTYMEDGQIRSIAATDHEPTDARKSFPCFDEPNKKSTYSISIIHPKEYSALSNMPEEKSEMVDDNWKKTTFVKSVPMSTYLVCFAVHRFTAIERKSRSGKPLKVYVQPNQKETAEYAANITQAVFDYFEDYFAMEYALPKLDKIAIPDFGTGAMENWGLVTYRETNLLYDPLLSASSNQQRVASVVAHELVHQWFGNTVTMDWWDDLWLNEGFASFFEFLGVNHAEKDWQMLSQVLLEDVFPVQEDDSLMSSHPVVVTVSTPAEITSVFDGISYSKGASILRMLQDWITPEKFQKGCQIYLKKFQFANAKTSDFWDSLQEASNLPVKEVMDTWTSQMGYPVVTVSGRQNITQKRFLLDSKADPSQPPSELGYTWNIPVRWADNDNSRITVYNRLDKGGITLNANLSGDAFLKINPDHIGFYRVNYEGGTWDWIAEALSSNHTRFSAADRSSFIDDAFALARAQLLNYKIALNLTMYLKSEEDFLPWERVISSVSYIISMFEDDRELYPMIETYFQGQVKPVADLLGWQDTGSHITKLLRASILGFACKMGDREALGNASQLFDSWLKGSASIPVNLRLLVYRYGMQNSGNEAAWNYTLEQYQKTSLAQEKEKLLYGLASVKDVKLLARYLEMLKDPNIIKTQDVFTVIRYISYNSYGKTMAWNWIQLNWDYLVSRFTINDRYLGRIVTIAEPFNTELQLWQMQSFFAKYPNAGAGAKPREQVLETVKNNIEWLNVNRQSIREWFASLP
Method: (§2) Enzymatic activities were evaluated by histoenzymography on OCT-embedded frozen kidneys sections (7 µm), as previously described ([Juillerat-Jeanneret et al., 1992]; [Juillerat-Jeanneret et al., 2000]; [Juillerat-Jeanneret et al., 2003]). Briefly, slides were fixed for 5 min in cold (−20°C) acetone, air dried at room temperature, rehydrated for 5 min in 0.9% NaCl, and exposed to the α-Glu-4-methoxy-β-naphtylamide (APA; Bachem) or γ-Glu-4-methoxy-β-naphtylamide (γ-GT; Serva) substrates and Fast Blue B (Sigma-Aldrich) at 37°C for 15 to 60 min until a red coloration was visible. The slides were washed in distilled water, counterstained with hematoxylin (Mayer) for 1 min, rinsed under tap water and then with Scott solution for 1 min, and mounted in Aquamount (Immu-mount; Thermo Shandon, Pittsburgh, PA, USA) and analyzed with a Nikon Eclipse E800 microscope and digital DXM1200 camera using ACT-1 software.
(§3) Sequential sections (7 µm) of frozen OCT-embedded kidneys of adriamycin (ADR)-treated mice were exposed at 37°C to β-methoxynaphthylamide (β-NA) specific substrates of aminopeptidase A (α-Glu-βNA, upper panels) or γ-glutamyltranspeptidase (γ-Glu-βNA, lower panels) and Fast Blue B, in the absence (none) or the presence of SS-31, α-Glu-SS-31 or γ-Glu-SS-31. The sections were then counterstained with light hematoxylin reagent. The enzymatic activity is visualized as a red precipitate. […]

[4] = biological target: T3, γ-glutamyltranspeptidase (γ-GT) (Mus musculus, UniProt Q60928); test: Histoenzymography of γ-GT activity on frozen kidney sections of ADR-treated mice; assay type: biochemical; settings: kidney sections of ADR-exposed mice, γ-Glu-βNA substrate, 37°C
T3 construct: from tissue; host or cells: frozen kidney sections of ADR-treated BALB/c male mice
T3 sequence (Q60928 whole entry): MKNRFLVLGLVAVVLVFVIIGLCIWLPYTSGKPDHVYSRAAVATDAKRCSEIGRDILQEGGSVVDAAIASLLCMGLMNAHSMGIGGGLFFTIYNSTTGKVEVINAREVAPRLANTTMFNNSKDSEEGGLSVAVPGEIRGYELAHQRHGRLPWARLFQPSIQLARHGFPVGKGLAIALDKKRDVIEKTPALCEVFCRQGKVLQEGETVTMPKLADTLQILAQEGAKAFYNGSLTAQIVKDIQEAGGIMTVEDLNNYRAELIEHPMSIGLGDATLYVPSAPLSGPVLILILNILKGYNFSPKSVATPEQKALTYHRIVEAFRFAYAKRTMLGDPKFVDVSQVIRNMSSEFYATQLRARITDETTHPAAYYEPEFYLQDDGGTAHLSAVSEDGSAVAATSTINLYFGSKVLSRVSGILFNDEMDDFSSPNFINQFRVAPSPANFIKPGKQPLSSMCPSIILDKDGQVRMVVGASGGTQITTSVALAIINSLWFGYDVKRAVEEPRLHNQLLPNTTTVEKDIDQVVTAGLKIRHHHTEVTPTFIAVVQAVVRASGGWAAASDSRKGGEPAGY
Method: as §2, §3

In the case of `COc1cccc2c1cc([N+](=O)[O-])c1c(C(=O)O)cc3c(c12)OCO3` [AA, aristolochic acid], the mean creatinine (BALB/c male mice [1]) is reported as 258 ± 92 µmol/L.

For `COc1cccc2c1C(=O)c1c(O)c3c(c(O)c1C2=O)C[C@@](O)(C(=O)CO)C[C@@H]3O[C@H]1C[C@H](N)[C@H](O)[C@H](C)O1` [ADR, adriamycin], the mean creatinine (BALB/c male mice [2]) was 33 ± 5 µmol/L.

`N[C@H](C(=O)O)[C@@H]1CC(Cl)=NO1` [acivicin] gave an IC50 [3] of 48 µM.

For “H-γ-Glu-D-Arg-DMT-Lys-Phe-NH 2 .2TFA [γ-Glu-SS-31]”, the “enzymatic activity of APA (histoenzymography)” value (aminopeptidase A (APA)) was “not” and the “enzymatic activity of γ-GT (histoenzymography)” value [4] was “modified neither”.
